pKi: −log10 of the molar value. Converted amounts (≈) assume the structure as drawn. The source made the active and inactive calls. The calls are words filed in the database; no cut-off is given here.
Experiments:
[1] = molecular target: T1, Metallo-beta-lactamase NDM-4 (Escherichia coli) (UniProt H6WZS9); assay: Inhibition of NDM4 in Escherichia coli ATCC 25922 assessed as potentiation of meropenem-induced antibacterial activity by measuring diameter of inhibition zone measured after 18 hrs by agar disk diffusion method
T1 sequence (whole entry): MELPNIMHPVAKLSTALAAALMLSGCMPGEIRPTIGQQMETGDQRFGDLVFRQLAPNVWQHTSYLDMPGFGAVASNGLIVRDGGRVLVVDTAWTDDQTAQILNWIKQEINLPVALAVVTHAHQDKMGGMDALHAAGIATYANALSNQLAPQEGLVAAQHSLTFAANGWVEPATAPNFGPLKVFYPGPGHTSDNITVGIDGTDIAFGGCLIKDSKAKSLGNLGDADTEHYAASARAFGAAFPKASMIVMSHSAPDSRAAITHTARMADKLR

Enterobacter cloacae [2] = assay: Inhibition of NDM1 in Enterobacter cloacae isolate 6 assessed as potentiation of meropenem-induced antibacterial activity by measuring meropenem MIC after 24 hrs by broth microdilution assay (reference value: 320 ug/ml)
HeLa [3] = assay: Cytotoxicity against human HeLa cells at 64 ug/mL after 24 hrs by calcein AM/propidium iodide staining based fluorescence microscopic method; type: cell-based
Klebsiella pneumoniae [4] = assay: Inhibition of IMP4 in Klebsiella pneumoniae isolate 17 assessed as potentiation of meropenem-induced antibacterial activity by measuring meropenem MIC after 24 hrs by broth microdilution method (reference value: 32 ug/ml)
Enterobacter cloacae [5] = assay: Effect on growth of Enterobacter cloacae isolate 16 after 24 hrs by broth microdilution method; type: organism-based
Escherichia coli [6] = assay: Effect on growth of Escherichia coli isolate 2 after 24 hrs by broth microdilution assay; type: organism-based
Escherichia coli [7] = assay: Effect on growth of Escherichia coli isolate 8 after 24 hrs by broth microdilution assay; type: organism-based
Klebsiella pneumoniae [8] = assay: Effect on growth of Klebsiella pneumoniae isolate 17 after 24 hrs by broth microdilution method; type: organism-based
Escherichia coli [9] = assay: Inhibition of IMP4 in Escherichia coli isolate 18 assessed as potentiation of meropenem-induced antibacterial activity by measuring meropenem MIC after 24 hrs by broth microdilution method (reference value: 16 ug/ml)
Enterobacter cloacae [10] = assay: Effect on growth of Enterobacter cloacae isolate 15 after 24 hrs by broth microdilution method; type: organism-based
[11] = molecular target: T1, Metallo-beta-lactamase NDM-4 (Escherichia coli); assay: Inhibition of NDM4 in Escherichia coli isolate 3 assessed as potentiation of meropenem-induced bactericidal activity by measuring bacterial killing in late exponential phase at 64 ug/ml incubated for 24 hrs followed by replating on agar plates for 16 to 18 hrs and measured up to 24 hrs by time kill assay; details: TDE = time-dependent effect
Escherichia coli [12] = assay: Effect on growth of Escherichia coli isolate 1 after 24 hrs by broth microdilution assay; type: organism-based
[13] = system: Stenotrophomonas maltophilia; assay: Potency index, ratio of EDTA IC50 to test compound IC50 for Stenotrophomonas maltophilia NDM1 expressed in Escherichia coli BL21 (DE3) expressing measured after 15 minutes at interval of 60s
Enterobacter cloacae [14] = assay: Inhibition of NDM1 in Enterobacter cloacae isolate 5 assessed as potentiation of meropenem-induced antibacterial activity by measuring meropenem MIC after 24 hrs by broth microdilution assay (reference value: 640 ug/ml)
Escherichia coli [15] = assay: Effect on growth of Escherichia coli isolate 18 after 24 hrs by broth microdilution method; type: organism-based
Escherichia coli [16] = assay: Inhibition of NDM1 in Escherichia coli isolate 1 assessed as potentiation of meropenem-induced antibacterial activity by measuring meropenem MIC after 24 hrs by broth microdilution assay (reference value: 1280 ug/ml)
Klebsiella pneumoniae [17] = assay: Inhibition of IMP4 in Klebsiella pneumoniae isolate 10 assessed as potentiation of meropenem-induced antibacterial activity by measuring meropenem MIC after 24 hrs by broth microdilution method (reference value: 64 ug/ml)
Enterobacter cloacae [18] = assay: Effect on growth of Enterobacter cloacae isolate 4 after 24 hrs by broth microdilution assay; type: organism-based
Escherichia coli [19] = assay: Effect on growth of Escherichia coli isolate 9 after 24 hrs by broth microdilution assay; type: organism-based
[20] = Non-competitive inhibition of bacterial NDM1 (G28 to R270 residues) expressed in Escherichia coli BL21 (DE3) using varying levels of MEPM as substrate preincubated for 15 mins followed by substrate addition measured at 60 secs interval up to 60 mins by Lineweaver-Burk plot analysis; design: species or system Bacteria
Klebsiella pneumoniae [21] = assay: Inhibition of IMP4 in Klebsiella pneumoniae isolate 12 assessed as potentiation of meropenem-induced antibacterial activity by measuring meropenem MIC after 24 hrs by broth microdilution method (reference value: 16 ug/ml)
[22] = molecular target: T1, Metallo-beta-lactamase NDM-4 (Escherichia coli); assay: Inhibition of NDM4 in Escherichia coli isolate 3 assessed as potentiation of meropenem-induced bactericidal activity at 4 times MIC incubated for 24 hrs followed by replating on agar plates for 16 to 18 hrs and measured up to 24 hrs by time kill assay
[23] = Competitive inhibition of bacterial NDM1 (G28 to R270 residues) expressed in Escherichia coli BL21 (DE3) using varying levels of MEPM as substrate preincubated for 15 mins followed by substrate addition measured at 60 secs interval up to 60 mins by Lineweaver-Burk plot analysis; design: species or system Bacteria
[24] = molecular target: T1, Metallo-beta-lactamase NDM-4 (Escherichia coli); assay: Inhibition of NDM4 in Escherichia coli isolate 3 assessed as potentiation of meropenem-induced bactericidal activity by measuring log reduction in bacterial colonies at 64 ug/ml incubated for 24 hrs followed by replating on agar plates for 16 to 18 hrs and measured up to 24 hrs by time kill assay
HeLa [25] = assay: Cytotoxicity against human HeLa cells at 128 ug/mL after 24 hrs by calcein AM/propidium iodide staining based fluorescence microscopic method; type: cell-based
[26] = molecular target: T1, Metallo-beta-lactamase NDM-4 (Escherichia coli); assay: Inhibition of NDM4 in Escherichia coli isolate 3 assessed as potentiation of meropenem-induced bactericidal activity by measuring bacterial killing at 64 ug/ml incubated for 24 hrs followed by replating on agar plates for 16 to 18 hrs and measured up to 24 hrs by time kill assay relative to control

inhibition zone (IZ) [1] | MIC (Enterobacter cloacae [2]) | MIC (Klebsiella pneumoniae [4]) | MIC (Enterobacter cloacae [5]) | MIC (Escherichia coli [6]) | MIC (Escherichia coli [7]) | MIC (Klebsiella pneumoniae [8]) | MIC (Escherichia coli [9]) | MIC (Enterobacter cloacae [10]) | MIC (Escherichia coli [12]) | MIC (Enterobacter cloacae [14]) | MIC (Escherichia coli [15]) | MIC (Escherichia coli [16]) | MIC (Klebsiella pneumoniae [17]) | MIC (Enterobacter cloacae [18]) | MIC (Escherichia coli [19]) | MIC (Klebsiella pneumoniae [21]) | Structure (SMILES) | inhibition [11] | inhibition [22] | other results
2 to 5 mm | 2 µg/mL | 8 µg/mL | 32 µg/mL (≈ 56.1 µM) | 64 µg/mL (≈ 112 µM) | 64 µg/mL (≈ 112 µM) | 32 µg/mL (≈ 56.1 µM) | 2 µg/mL | 32 µg/mL (≈ 56.1 µM) | 32 µg/mL (≈ 56.1 µM) | 0.5 µg/mL | 32 µg/mL (≈ 56.1 µM) | 0.125 µg/mL | 1 µg/mL | 64 µg/mL (≈ 112 µM) | 32 µg/mL (≈ 56.1 µM) | 1 µg/mL | COc1ccc(CN(CCN(Cc2ccc(OC)cc2)Cc2cccc(C(=O)O)n2)Cc2cccc(C(=O)O)n2)cc1 | Tde | Active | Activity (HeLa [3]): Non-Toxic; Ratio IC50 [13]: 200; pKi [20]: 6.84
2 to 5 mm | 2 µg/mL | 8 µg/mL | 32 µg/mL (≈ 96.9 µM) | 32 µg/mL (≈ 96.9 µM) | 64 µg/mL (≈ 194 µM) | 32 µg/mL (≈ 96.9 µM) | 2 µg/mL | 32 µg/mL (≈ 96.9 µM) | 32 µg/mL (≈ 96.9 µM) | 0.5 µg/mL | 32 µg/mL (≈ 96.9 µM) | 0.125 µg/mL | 0.5 µg/mL | 64 µg/mL (≈ 194 µM) | 32 µg/mL (≈ 96.9 µM) | 0.5 µg/mL | O=C(O)c1cccc(CNCCNCc2cccc(C(=O)O)n2)n1 | Tde | Active | pKi [23]: 6.17; FC [24]: 3; Activity (HeLa [25]): Non-Toxic; inhibition [26]: 99.9%
